Experimental data: patent US20020068749A1, “AIDS REMEDY” (priority 1996, published 2002)

System: IIIB strain of HIV-1 in CEM-SS cells
Assay: Measurement of anti-HIV activity in vitro (XTT method, control of cellular denaturalization due to HIV infection)
Type: cell-based
Experimental: An increase in the synergistic anti-virus activity in the combined use of KNI-272 and Saquinavir is shown by a specific experimental example. The anti-virus activity was evaluated as the capability of controlling generation of infectious virus particles in vitro. The effect of cell extinction to HIV infection was calculated when Saquinavir methanesulfonate and KNI-272 respectively or both were added to a culture liquid, to determine the concentration region where a synergistic increase in the anti-virus activity in the combined use of the two compounds is conspicuous. Measurement of the anti-virus activity in vitro was carried out according to the following procedure. In the description hereinafter the concentration of methanesulfonate is indicated as the concentration converted into Saquinavir. The concentration of KNI-272 is indicated as the concentration of the compound itself.
A IIIB strain of HIV-1 was used as an HIV wild strain and CEM-SS cells were used as infected cells in the above-mentioned culture. The amount of HIV sufficient to kill all CEM-SS cells 6 days after inoculation (multiplicy of infection, MOI of 0.01-0.05) was determined and this amount of HIV was added. A 96 well micro-titre plate was used to inoculate 5×10^3 CEM-SS cells per well in this case. At the time of inoculation of cells, a test compound was added to the culture medium to a prescribed concentration. Three specimens were used for each test level. The following controls were used (1) as calorimetric controls: a sample with only a test compound added to the culture medium, (2) as a cytotoxic control for a test compound: a sample with only cells and the test compound added to the culture medium, (3) as a virus control: a sample with the cells inoculated with only a virus, and (4) as a cell survival control, a sample consisting only of cells. In addition, AZT and DDC which are compounds with a known anti-HIV activity were used as positive controls. After the cells were added, they were inoculated with the infecting virus, followed by incubation at 37° C.for 6 days. Cellular denaturalization due to HIV infection was colorimetrically measured for each well. Employing the colorimetry, was the metabolism from XTT Tetrazolium to XTT Formazan was evaluated. This colorimetry is called the XTT method (see Weislow et al., Journal of the National Cancer Institute 81, 577-586 (1989)). After the above-mentioned incubation, a prescribed amount of XTT was added to each well and incubation was continued for a further four hours at 37° C. to measure the amount of XTT Formazan produced by metabolism by means of calorimetric quantitation.
The anti-HIV activity for each experimental level was calculated by comparing the number of undenatured cells measured by the above-mentioned assay with the corresponding number of cells in the four control groups. Specifically, the proportion of cellular denaturalization due to HIV infection controlled by the addition of the test compound was calculated. A systematic deviation between the several experiments was corrected based on the results of AZT and ddC used as positive controls.
In this example, 0 ng/ml and several concentrations in the range of 0.625-10.0 ng/ml of Saquinavir methanesulfonate and 0 ng/ml and several concentrations in the range of 0.313-80.0 ng/ml of KNI-272 were used. The results (anti-HIV activities) obtained under these conditions using either one of these medicaments or both medicaments in combination are shown in Table 1.
With regard to this concentration region wherein no synergistic increase can be seemingly identified, a similar evaluation was carried out adding a larger amount of HIV to qualitatively evaluate the presence or absence of a synergistic effect. […] This affords qualitative results rather than quantitative results.
An increase in the synergistic anti-virus activity in the combined use of KNI-272 and Ritonavir is shown by a specific experimental example. […]

CSC[C@H](NC(=O)COc1cccc2cnccc12)C(=O)N[C@@H](Cc1ccccc1)[C@H](O)C(=O)N1CSC[C@H]1C(=O)NC(C)(C)C [KNI-272, (R)-N-1,1-dimethylethyl-3-[(2S,3S)-2-hydroxy-3-[(R)-2-(5-isoquinolyloxyacetyl)amino-3-methylthiopropanoyl]amino-4-phenylbutanoyl]-1,3-thiazolidine-4-carboxyamide]
Anti-HIV activity (%) (KNI-272 0.313 ng/ml alone (Table 1)): 4.8% | Anti-HIV activity (%) (KNI-272 0.313 ng/ml alone (Table 4)): 5.6% | Anti-HIV activity (%) (KNI-272 0.625 ng/ml alone (Table 1)): 0.0% | Anti-HIV activity (%) (KNI-272 0.625 ng/ml alone (Table 4)): 2.1% | Anti-HIV activity (%) (KNI-272 1.25 ng/ml alone (Table 1)): 1.2% | Anti-HIV activity (%) (KNI-272 1.25 ng/ml alone (Table 4)): 3.8% | Anti-HIV activity (%) (KNI-272 2.5 ng/ml alone (Table 1)): 11.0% | Anti-HIV activity (%) (KNI-272 2.5 ng/ml alone (Table 4)): 2.2% | Anti-HIV activity (%) (KNI-272 5.0 ng/ml alone (Table 1)): 8.5% | Anti-HIV activity (%) (KNI-272 5.0 ng/ml alone (Table 4)): 0.0% | Anti-HIV activity (%) (KNI-272 10.0 ng/ml alone (Table 1)): 13.1% | Anti-HIV activity (%) (KNI-272 10.0 ng/ml alone (Table 4)): 2.5% | Anti-HIV activity (%) (KNI-272 20.0 ng/ml alone (Table 1)): 15.7% | Anti-HIV activity (%) (KNI-272 20.0 ng/ml alone (Table 4)): 12.8% | anti-HIV activity as fraction of that of combined use of 10.0 ng/ml Saquinavir methanesulfonate and 20.0 ng/ml KNI-272 (KNI-272 30.0 ng/ml alone): ⅓ | Anti-HIV activity (%) (KNI-272 40.0 ng/ml alone (Table 1)): 27.6% | Anti-HIV activity (%) (KNI-272 40.0 ng/ml alone (Table 4)): 42.8% | anti-HIV activity as fraction of that of combined use of 20.0 ng/ml Ritonavir and 40.0 ng/ml KNI-272 (KNI-272 60.0 ng/ml alone): about ¾ | Anti-HIV activity (%) (KNI-272 80.0 ng/ml alone (Table 1)): 65.7% | Anti-HIV activity (%) (KNI-272 80.0 ng/ml alone (Table 4)): 100.0%
